± gives the expanded uncertainty stated by the source. Each block holds one molecule with its values, some of them ahead of it.
Tests used:
[1] = 298.15 K; 101.33 kPa; Liquid
[2] = refractive index (Na D-line) (dimensionless); conditions: 298.15 K; 101.33 kPa; Liquid; Standard Abbe refractometry
[3] = excess molar enthalpy (molar enthalpy of mixing); xn = mol fraction of the nth substance listed; conditions: 298.15 K, 101 kPa, Liquid

SMILES: CC(O)CO (stereo not given) [1,2-propanediol]
mass density [1]: 1032.61 ± 0.31 kg/m3
refractive index [2]: 1.4323 ± 0.0005

SMILES: CC(O)CO (stereo not given) [1,2-propanediol] + CCCCCCO
excess molar enthalpy ([3]; x1 = 0.0905): 0.0833 ± 0.00359 kcal/mol
excess molar enthalpy ([3]; x1 = 0.1929): 0.138 ± 0.00526 kcal/mol
excess molar enthalpy ([3]; x1 = 0.2872): 0.165 ± 0.00621 kcal/mol
excess molar enthalpy ([3]; x1 = 0.3828): 0.178 ± 0.00669 kcal/mol
excess molar enthalpy ([3]; x1 = 0.4778): 0.181 ± 0.00693 kcal/mol
excess molar enthalpy ([3]; x1 = 0.5711): 0.173 ± 0.00645 kcal/mol
excess molar enthalpy ([3]; x1 = 0.6718): 0.157 ± 0.00598 kcal/mol
excess molar enthalpy ([3]; x1 = 0.7021): 0.146 ± 0.00574 kcal/mol
excess molar enthalpy ([3]; x1 = 0.7996): 0.116 ± 0.00454 kcal/mol
excess molar enthalpy ([3]; x1 = 0.904): 0.0673 ± 0.00287 kcal/mol

SMILES: CC(O)CO (stereo not given) [1,2-propanediol] + CCCCCO
excess molar enthalpy ([3]; x1 = 0.0914): 0.0774 ± 0.00335 kcal/mol
excess molar enthalpy ([3]; x1 = 0.1843): 0.124 ± 0.00478 kcal/mol
excess molar enthalpy ([3]; x1 = 0.2821): 0.15 ± 0.00574 kcal/mol
excess molar enthalpy ([3]; x1 = 0.3755): 0.162 ± 0.00621 kcal/mol
excess molar enthalpy ([3]; x1 = 0.4761): 0.163 ± 0.00621 kcal/mol
excess molar enthalpy ([3]; x1 = 0.577): 0.153 ± 0.00598 kcal/mol
excess molar enthalpy ([3]; x1 = 0.6082): 0.146 ± 0.00574 kcal/mol
excess molar enthalpy ([3]; x1 = 0.7027): 0.126 ± 0.00502 kcal/mol
excess molar enthalpy ([3]; x1 = 0.802): 0.0963 ± 0.00382 kcal/mol
excess molar enthalpy ([3]; x1 = 0.9014): 0.0549 ± 0.00239 kcal/mol

SMILES: CC(O)CO (stereo not given) [1,2-propanediol] + CCCCO
excess molar enthalpy ([3]; x1 = 0.1007): 0.0737 ± 0.00311 kcal/mol
excess molar enthalpy ([3]; x1 = 0.1971): 0.114 ± 0.00454 kcal/mol
excess molar enthalpy ([3]; x1 = 0.2945): 0.135 ± 0.00526 kcal/mol
excess molar enthalpy ([3]; x1 = 0.3853): 0.143 ± 0.0055 kcal/mol
excess molar enthalpy ([3]; x1 = 0.4758): 0.142 ± 0.0055 kcal/mol
excess molar enthalpy ([3]; x1 = 0.5644): 0.133 ± 0.00526 kcal/mol
excess molar enthalpy ([3]; x1 = 0.6047): 0.124 ± 0.00478 kcal/mol
excess molar enthalpy ([3]; x1 = 0.7062): 0.104 ± 0.00406 kcal/mol
excess molar enthalpy ([3]; x1 = 0.8047): 0.0773 ± 0.00335 kcal/mol
excess molar enthalpy ([3]; x1 = 0.9026): 0.0429 ± 0.00208 kcal/mol

SMILES: CC(O)CO (stereo not given) [1,2-propanediol] + CCCO
excess molar enthalpy ([3]; x1 = 0.1008): 0.0544 ± 0.00239 kcal/mol
excess molar enthalpy ([3]; x1 = 0.201): 0.087 ± 0.00359 kcal/mol
excess molar enthalpy ([3]; x1 = 0.3036): 0.105 ± 0.0043 kcal/mol
excess molar enthalpy ([3]; x1 = 0.4025): 0.111 ± 0.0043 kcal/mol
excess molar enthalpy ([3]; x1 = 0.5001): 0.107 ± 0.0043 kcal/mol
excess molar enthalpy ([3]; x1 = 0.5049): 0.109 ± 0.0043 kcal/mol
excess molar enthalpy ([3]; x1 = 0.6007): 0.0973 ± 0.00406 kcal/mol
excess molar enthalpy ([3]; x1 = 0.7015): 0.0808 ± 0.00335 kcal/mol
excess molar enthalpy ([3]; x1 = 0.8011): 0.0589 ± 0.00263 kcal/mol
excess molar enthalpy ([3]; x1 = 0.9009): 0.0316 ± 0.00172 kcal/mol

SMILES: CC(O)CO (stereo not given) [1,2-propanediol] + CCO
excess molar enthalpy ([3]; x1 = 0.0997): 0.0215 ± 0.00141 kcal/mol
excess molar enthalpy ([3]; x1 = 0.1948): 0.0343 ± 0.00182 kcal/mol
excess molar enthalpy ([3]; x1 = 0.2875): 0.042 ± 0.00206 kcal/mol
excess molar enthalpy ([3]; x1 = 0.381): 0.0453 ± 0.00215 kcal/mol
excess molar enthalpy ([3]; x1 = 0.4756): 0.0451 ± 0.00215 kcal/mol
excess molar enthalpy ([3]; x1 = 0.4952): 0.0474 ± 0.00222 kcal/mol
excess molar enthalpy ([3]; x1 = 0.5972): 0.0427 ± 0.00208 kcal/mol
excess molar enthalpy ([3]; x1 = 0.6991): 0.0353 ± 0.00184 kcal/mol
excess molar enthalpy ([3]; x1 = 0.8005): 0.0253 ± 0.00153 kcal/mol
excess molar enthalpy ([3]; x1 = 0.9004): 0.0136 ± 0.00117 kcal/mol

Next, values leading:

excess molar enthalpy ([3]; x1 = 0.0787): -0.00605 ± 0.000932 kcal/mol
excess molar enthalpy ([3]; x1 = 0.1565): -0.01 ± 0.00105 kcal/mol
excess molar enthalpy ([3]; x1 = 0.2336): -0.0127 ± 0.00112 kcal/mol
excess molar enthalpy ([3]; x1 = 0.3099): -0.0143 ± 0.0012 kcal/mol
excess molar enthalpy ([3]; x1 = 0.3885): -0.0151 ± 0.00122 kcal/mol
excess molar enthalpy ([3]; x1 = 0.3952): -0.014 ± 0.00117 kcal/mol
excess molar enthalpy ([3]; x1 = 0.4998): -0.0136 ± 0.00117 kcal/mol
excess molar enthalpy ([3]; x1 = 0.6004): -0.0124 ± 0.00112 kcal/mol
excess molar enthalpy ([3]; x1 = 0.7015): -0.0102 ± 0.00105 kcal/mol
excess molar enthalpy ([3]; x1 = 0.8026): -0.00743 ± 0.00098 kcal/mol
excess molar enthalpy ([3]; x1 = 0.9): -0.00392 ± 0.00086 kcal/mol
SMILES: CC(O)CO (stereo not given) [1,2-propanediol] + CO

mass density [1]: 805.75 ± 0.23 kg/m3
refractive index [2]: 1.3974 ± 0.0005
SMILES: CCCCO [butan-1-ol]

mass density [1]: 785.15 ± 0.25 kg/m3
refractive index [2]: 1.3595 ± 0.0005
SMILES: CCO [ethanol]

mass density [1]: 815.2 ± 1.9 kg/m3
refractive index [2]: 1.4166 ± 0.0006
SMILES: CCCCCCO [hexan-1-ol]

mass density [1]: 786.5 ± 0.51 kg/m3
refractive index [2]: 1.327 ± 0.0005
SMILES: CO [methanol]

mass density [1]: 810.88 ± 0.94 kg/m3
refractive index [2]: 1.4089 ± 0.0005
SMILES: CCCCCO [pentan-1-ol]

mass density [1]: 799.51 ± 0.24 kg/m3
refractive index [2]: 1.3833 ± 0.0005
SMILES: CCCO [propan-1-ol]

— the NIST ThermoML archive (doi:10.1021/je060086x)
